# Experimental data from patent US20260183274A1, “PDK1 REGULATORY COMPOUND AND COMPOSITION CONTAINING THE SAME” (PROVIBIO CO., LTD., priority 2024, published 2026).
# What was measured:
# [1] = test system: Human Kidney Cancer cell line, ACHN; assay: Relative cell viability CCK-8, ACHN; type: cell-based; conditions: 48 hours
# Procedure: Similarly, human-derived cervical cancer cell line HeLa and renal cancer cell line ACHN, obtained from the Korean Cell Bank, were cultured in DMEM medium containing 10% FBS, 100 U/mL penicillin, and 100 μg/mL streptomycin.
# (§1) Following stabilization, the cells were harvested using Trypsin-EDTA treatment, centrifuged at 1,200 rpm for 3 minutes, the supernatant was removed, and the cells were resuspended in the same medium. They were then seeded into a 96-well plate (Costar 96-well cell culture plate, Corning) at 100 μL per well, and the conditions were adjusted as indicated in Table 5.
# (§2) The cells were cultured in a 5% CO2 incubator at 37° C. for 24 hours, and after stabilization of the cells, each plate was washed with 200 μL of PBS per well and treated with 50 μL of culture medium per well.
# The compounds according to the present invention or the control group (DMSO) were added at concentrations of 0, 10, 30, and 50 μM in 50 μL aliquots to the plates, and the plates were cultured at 37° C. in a 5% CO2 incubator for 48 hours.
# (§3) After that, 10 μL of CCK-8 was added to each well, and the plate was incubated again at 37° C. in a 5% CO2 incubator for 2 hours.
# (§4) In other words, when the survival rate of untreated cells (DMSO) is set at 100%, the relative cell survival rate in each group treated with the drug at different concentrations is indicated.
# [2] = test system: Human multiple myeloma, KMS26; assay: Relative cell viability, KMS26; type: cell-based; conditions: KMS26 cells, relative to untreated cells
# Procedure: as §3, §4
# [3] = test system: Human Melanoma cancer cell, Malme-3M; assay: Relative cell viability CCK-8, Malme-3M; type: cell-based; conditions: 48 hours
# Procedure: (§5) Human-derived breast cancer cell line MCF-7, human-derived lung cancer cell line A549, human-derived colorectal cancer cell line HCT-116, human pancreatic cancer cell line AsPC-1, glioblastoma cell line A172, and melanoma cell line Malme-3M were obtained from the Korean Cell Bank. gastric cancer cell line SNU-719, and bladder cancer cell line T24 were cultured in RPMI-1640 medium containing 10% FBS.
# as §1, §2, §3, §4
# [4] = test system: Balb/c mice with induced pulmonary fibrosis; assay: Bleomycin-induced pulmonary fibrosis animal model; type: in vivo, mouse; conditions: vs BLM-treated group; for Collagen deposition (Masson's trichrome, Sirius red): FIG. 42; for Expression of α-SMA in lung tissue (IHC): FIG. 43
# From the text: To evaluate the therapeutic efficacy of the compound according to the present invention against pulmonary fibrosis, an animal model of pulmonary fibrosis induced by bleomycin intratracheal administration was established.
# For this purpose, 8-week-old male Balb/c mice were subjected to general anesthesia using an inhalation anesthetic (2-3% isoflurane in oxygen), followed by disinfection of the neck region, skin incision, and exposure of the trachea.
# Bleomycin (Sigma-Aldrich, USA) was directly administered into the trachea at a concentration of 5 mg/kg in a solution of 100 μL.
# Two days prior to Bleomycin administration, the compound of the present invention or the comparative drug was administered intraperitoneally at the specified concentration and dose, and the administration was continued once daily for a total of 14 days.
# The experimental groups included Normal, Bleomycin alone (BLM), and BLM plus the compound of the present invention (BLM+GO88, 0.2 mg/kg).
# Ten days later, the mice were euthanized humanely using carbon dioxide gas, the trachea was incised, and PBS was injected into the trachea to remove blood from the lungs.
# The lung tissue washed with PBS was excised, fixed in 4% paraformaldehyde solution for 24 hours, and then paraffin blocks and tissue sections were prepared. The prepared sections were subjected to pathological analysis using H&E, Masson's trichrome, and Sirius red staining.
# Additionally, immunohistochemical (IHC) staining was performed for α-SMA (α-smooth muscle actin), an indicator of lung fibroblast activation.
# [5] = test system: Human Gastric cancer cell, SNU-719; assay: Relative cell viability CCK-8, SNU-719; type: cell-based; conditions: 48 hours
# Procedure: as §5, §1, §2, §3, §4
# [6] = test system: human lung fibroblasts MRC-5 cell lines; assay: TGF-β induced Collagen I expression in MRC-5 cells (Western blot); type: cell-based; conditions: TGF-β 5 ng/ml; 0.5 μM and 1 μM; 24 hours; FIG. 44
# Procedure: To confirm that the compound of the present invention directly acts on fibrosis-related mechanisms, in vitro experiments were performed using human lung fibroblasts MRC-5 cell lines (Korea Cell Bank).
# First, MRC-5 cells were seeded at 5×10^3 cells per well in a 6-well plate and stabilized for 24 hours.
# Subsequently, experimental groups were established, including a control group, a group treated with TGF-β (5 ng/ml) alone, and groups treated with TGF-β and the compound GO88 from the present invention at concentrations of 0.5 μM and 1 μM, respectively.
# After treating each group with the drugs for 24 hours, the cell medium was removed, and the cells were washed twice with cold PBS. Then, RIPA lysis buffer containing phosphatase inhibitor and protease inhibitor was added to each group to extract proteins.
# The extracted proteins were incubated at 4° C. for 30 minutes, then centrifuged at 13,000 rpm for 15 minutes, and the supernatant was collected. The total protein concentration was measured using the BCA protein quantification method.
# Subsequently, the proteins were separated by SDS-PAGE, transferred to a PVDF membrane, and Western blot analysis was performed.
# The expression levels of Collagen I, a marker related to pulmonary fibrosis, were confirmed, with GAPDH used as an internal control.
compound,measurement,setting,value
"Nc1ncccc1C(=O)NCCCCCCCCCCCCN1CCNCC1 [Compound 5, 2-Amino-N-(12-(piperazin-1-yl)dodecyl)-nicotinamide]",viability at 1 µM,[1],29.5%
same,viability at 10 µM,[1],30%
same,viability at 30 µM,[1],29.2%
same,viability at 50 µM,[1],28.3%
"CC1(C)CN(CCCCCCCCCCCCC(=O)Nc2nc(N)c3[nH]cnc3n2)CCO1 [Compound 11, 12-[4-(2,2-dimethylmorpholin-4-yl)]dodecyl-N-(6-aminopurine-2-yl) carboxamide]",Relative cell viability (%),[2]; 1 μM,31.19%
same,"Relative cell viability (%), Malme-3M",[3]; 1 μM,44.06%
same,"Relative cell viability (%), Malme-3M",[3]; 10 μM,37.40%
same,"Relative cell viability (%), Malme-3M",[3]; 30 μM,36.80%
same,"Relative cell viability (%), Malme-3M",[3]; 50 μM,38.87%
"Nc1ncccc1C(=O)NCCCCCCCCCCCCN1CCNCC1 [Compound 14, 2-Amino-N-(12-(piperazin-1-yl)dodecyl)nicotinamide]",viability at 1 µM,"[3]; Homo sapiens, Malme-3M, 1 μM",43.7%
same,viability at 10 µM,"[3]; Homo sapiens, Malme-3M, 10 μM",31.2%
same,viability at 30 µM,"[3]; Homo sapiens, Malme-3M, 30 μM",16.3%
same,viability at 50 µM,"[3]; Homo sapiens, Malme-3M, 50 μM",15.9%
same,"Collagen deposition (Masson's trichrome, Sirius red)",[4],significantly reduced
same,Expression of α-SMA in lung tissue (IHC),[4],significantly suppressed
same,viability at 1 µM,[5]; 1 μM,49.9%
same,viability at 10 µM,[5]; 10 μM,47.8%
same,viability at 30 µM,[5]; 30 μM,44.4%
same,viability at 50 µM,[5]; 50 μM,45.5%
same,Protein expression of Collagen I,[6],inhibited in a concentration-dependent manner
"Nc1nc(NC(=O)CCCCCCCCCCCCN2CCN(CCO)CC2)nc2nc[nH]c12 [Compound 15, 12-[4-(2-hydroxyethyl)piperazin-1-yl]dodecyl-N-(6-aminopurine-2-yl) carboxamide]",viability at 1 µM,[1],31.7%
same,viability at 10 µM,[1],30%
same,viability at 30 µM,[1],30.6%
same,viability at 50 µM,[1],30.3%
"Nc1ncccc1C(=O)NCCCCCCCCCCCCF [Compound 57, 2-Amino-N-(12-fluoro-dodecyl)-nicotinamide]",viability at 10 µM,"[2]; Homo sapiens, KMS-26, 10 μM",44.4%
same,viability at 30 µM,"[2]; Homo sapiens, KMS-26, 30 μM",43.1%
same,"Collagen deposition (Masson's trichrome, Sirius red)",[4],significantly reduced
same,Expression of α-SMA in lung tissue (IHC),[4],significantly suppressed
